From patent US8618169B2, “Derivatives of N-phenylanthranilic acid and 2-benzimidazolone as potassium channel and/or neuron activity modulators” (Ramot at Tel-Aviv University Ltd., priority 2002, dated 2013)

Tests used:
[1] = target: T1, KCNQ1/KCNE1 (Homo sapiens, UniProt P51787); assay: KCNQ1/KCNE1 (IKS) current amplitude; type: cell-based; conditions: 50 μM, test potentials −50 to 0 mV, data not shown
T1 construct: expressed in transfected cells; host or cells: Xenopus oocytes (stated for Compound 6)
Experimental: Briefly, two-electrode voltage-clamp measurements were performed 3-5 days following cRNA microinjection into oocytes. Oocytes were bathed in a modified ND96 solution containing (in mM): 96 NaCl, 2 KCl, 1 MgCl2, 0.1 CaCl2 and 5 HEPES titrated to pH=7.4 with NaOH. Whole-cell currents were recorded at room temperature (20° C.-22° C.) using a GeneClamp 500 amplifier (Axon Instruments, Foster City, Calif., USA). […] Current signals were filtered at 0.5 kHz and digitized at 2 kHz.
The current amplitude of the various channels was measured from a −80 mV holding potential.

[2] = test system: hippocampal pyramidal neurons; assay: Spontaneous EPSCs of hippocampal pyramidal neuron cultures, voltage-clamp; type: cell-based
Experimental: To further determine the synaptic site of M-channel activation by Compound 6, its effects on spontaneous excitatory postsynaptic currents (EPSCs) that could be recorded from dense networks of hippocampal pyramidal neuron cultures was tested.
In FIGS. 30B and 30C, burst activity before (control), in the presence (Compound 6) and after (Wash) application of 5 μM (FIG. 30B) and 10 μM (FIG. 30C) Compound 6, as recorded at the voltage clamp mode is shown. In FIG. 30D, burst activity before (control) and in the presence of 25 μM Linopirdine is shown. In FIG. 30E, the normalized number of bursts appeared in 180 seconds time period for 5 μM (left panel), 10 μM (mid panel) of Compound 6 and 25 μM linopirdine (right panel) are shown. The holding potential was −70 mV. n=5-6.
Thus, using the voltage-clamp configuration of the patch-clamp technique, spontaneous EPSCs were isolated at −70 mV (holding potential) in the presence of 10 μM bicuculline and 10 μM picrotoxin to block GABAA receptor-mediated inhibitory postsynaptic currents. As is shown in FIG. 30A, under control conditions, the frequency of EPSCs is variable depending of the density of the hippocampal culture, ranging from 0.4 Hz to 2 Hz. […] However, the majority of the EPSCs measured at −70 mV under the experimental recording conditions are mediated by AMPA receptors as most of the currents are blocked by 10 μM NBQX, leaving only a small fraction EPSC sensitive to the NMDA receptor blocker DL-AP5 (FIG. 30A).

| SMILES | effect on heteromeric KCNQ1/KCNE1 currents [1] | frequency of spontaneous EPSCs ([2]; 5 μM, −70 mV holding potential) | occurrence of spontaneous EPSCs ([2]; ≧10 μM) |
| --- | --- | --- | --- |
| Cc1ccc(Cl)c(Nc2ccccc2C(=O)O)c1Cl [Compound 1, Meclofenamic acid] | not enhanced | – | – |
| O=C(Cc1ccccc1Nc1c(Cl)cccc1Cl)NCCOCCO [Compound 6] | – | up to 49±5 % of control | totally suppresses |
